Consider three molecules from US11287433B2, “Methods for in vitro investigating mitochondrial replication dysfunction in a biological sample, kits and uses thereof, therapeutic methods against progeroid-like syndromes or symptoms and screening method for identifying particular protease inhibitor(s) and/or nitroso-redox stress scavenger …” (INSTITUT PASTEUR, priority 2014, dated 2022).

Peptide text beside a SMILES is read from it. * marks the point of attachment. Cbz = O=C(OCc1ccccc1)*

Series [1] concerns POLG1 levels. Briefly: POLG1 immunofluorescence in patient fibroblasts after treatment with protease inhibitors. The class given is cell-based, human. To be noted: 5 hours. The protocol: (§1) Cells plated on slides were fixed with 2% PFA and permeabilized with 0.5% Triton X-100. The slides were incubated in blocking buffer (BSA 5% in PBS) for 1 h then with the primary antibody (POLγ and HTRA3 purchased from SantaCruz Biotechnology, or as available from any other provider) for 1 h at room temperature. A second, fluorescent antibody (goat anti-mouse and goat anti-rabbit Alexa® Fluor 488, Alexa® Fluor 555, conjugated secondary antibodies from Invitrogen or by any other provider), was incubated for 1-2 h at room temperature, and DNA was stained with 10 μg/ml Hoechst.
(§2) Image analysis was carried out using Perkin-Elmer Ultraview RS Nipkow-spinning disk confocal microscope. Three-dimensional reconstruction of all the z-stacks was achieved using the 3D-volume rendering of IMARIS software (Bitplane). A regular fluorescence microscope can also be used, including for fluorescence quantification, although in this last case it will quantify one section of the cell only and not the entire volume; this quantification may be sufficient for comparative studies (normal versus patient cells). Confocal acquisition (even in the absence of spinning disk) in 3D allows quantification of the entire volume, and differences among samples are therefore more robust.
The inventors treated fibroblasts from healthy individuals, from UV^SS and from Cockayne syndrome of type I and II (the last being the more severe), with protease inhibitors MG132 (5 μM) and KSTI (100 μg/ml) for 5 hours and then tested for POLG1 levels.

Series [2] deals with POLG1 levels. Briefly: POLG1 levels in CSB-silenced HeLa cells after protease inhibitors. The format is cell-based, human.
For series [3], the system named is HTRA2. Briefly: HTRA2 fluorescence intensity per cell after MnTBAP. The class given is cell-based, human. The method, then: as §1
as §2, with “robust. […]” for “robust.”

Series [4] has as its system peroxynitrite. Briefly: Peroxynitrite levels by DHR123 fluorescence in fibroblasts. The class given is cell-based, human. Conditions: all control and patient cells; 24 h. The text has this: High levels of ROS react with nitric oxide (NO), thereby quenching NO and promoting the formation of peroxynitrite (ONOO^−), which is a powerful oxidant and nitration agent^31.
(§3) The inventors quantified fluorescence intensities on cells as summarized in Table 1 before and after treatment with MnTBAP (purchased from Millipore) of DCF and of DHR123 per cell (FIGS. 9(a) and (b)), as well as fluorescence intensities of HTRA2 (FIG. 9(c)), HTRA3 (FIG. 9(d)), POLG1 (FIG. 9(e)) per cell.
(§4) Manganase(III)tetrakis(4-benzoic acid)porphyrin (MNTBAP) is a synthetic metalloporphyrin which mimics superoxide dismutase and scavenges ROS and peroxynitrite^32.

Series [5] deals with reactive oxygen species (ROS). Briefly: ROS levels by DCFHDA (DCF) fluorescence in fibroblasts. The format is cell-based, human. To be noted: control and UVSS fibroblasts; 24 h.
Text: The inventors assessed the relative levels of oxidative stress using the fluorescent probe dichlorofluorescein diacetate (DCFHDA), which prevalently detects reactive oxygen species (ROS)^29. They reported that whereas UV^SS cells display moderate (25%) increase of signal compared to controls, all CS cells are characterized by higher levels (1.6 to 2-fold) of oxidative stress (FIG. 8a), in agreement with a previous finding^30.
as §3, §4

The test system of series [6] is POLG1. Briefly: POLG1 fluorescence intensity per cell after MnTBAP. The format is cell-based, human. To be noted: normal fibroblasts. The protocol:
as §1
as §2, with “robust. […]” for “robust.”

Series [7] concerns adult primary fibroblasts IMR-90 and BJ. Briefly: Cell survival of primary cells in culture at longer incubation times. The format is cell-based. The protocol:
As KSTI (serine protease inhibitor) and MnTBAP (ROS/RNS scavenger) rescue the CS phenotype by 24 h treatment, the inventors assessed cell survival in culture at longer incubation times with either drug. They used doses of the drugs as those affecting CS cells: 100 μg/ml of KSTI and 100 μM MnTBAP on adult primary fibroblasts IMR-90 and BJ (from ATCC repository). […] Additional experiments are ongoing to test the survival at longer incubation times and lower doses of the drug.

For series [8], the system named is HTRA3. Briefly: HTRA3 fluorescence intensity per cell after MnTBAP. The class given is cell-based, human. The method, then:
as §1, §2, §3

For series [9], the system named is mtDNA content. Briefly: qPCR of mtDNA content after MnTBAP. The class given is cell-based, human.
For series [10], the system named is ATP synthesis. Briefly: ATP tests (glycolysis/OXPHOS fraction and total ATP per cell) after MnTBAP. The class given is cell-based, human.
Setting [11] is: CS type I and type II fibroblasts 359, 797 and 816, MG132 5 μM or KSTI 100 μg/ml.
Setting [12] is: CS type I fibroblasts 539 and 548, MG132 5 μM or KSTI 100 μg/ml.
Where [13] appears, read: fibroblasts of healthy individuals and of UVSS, MG132 5 μM or KSTI 100 μg/ml.

Regarding `CC(C)C[C@@H](C=O)NC(=O)[C@H](CC(C)C)NC(=O)[C@H](CC(C)C)NC(=O)OCc1ccccc1` [MG132, benzyl N-[(2S)-4-methyl-1-[[(2S)-4-methyl-1-[[(2S)-4-methyl-1-oxopentan-2-yl]amino]-1-oxopentan-2-yl]amino]-1-oxopentan-2-yl]carbamate] (Cbz-Leu-Leu-Leu-aldehyde), the POLG1 immunofluorescence level result was “POLG1 levels exceeded those of untreated healthy individuals” in series [1] (setting [11]); “Significant modifications in two CS type I fibroblasts (539 and 548) were not observed” in series [1] (setting [12]); “increased to levels of healthy individual” in series [1] (CS type II fibroblasts 177, MG132 5 μM); “increased levels of POLG1 immunofluorescence” in series [1] (setting [13]). Further, the POLG1 levels entry in [2] is recorded as “restored normal POLG1 levels”.

For `O=C(O)c1ccc(/C2=C3\C=CC(=N3)/C(c3ccc(C(=O)O)cc3)=c3/cc/c4[n]3[Mn]([Cl])[n]3c2ccc3/C(c2ccc(C(=O)O)cc2)=C2/C=CC(=N2)\C=4c2ccc(C(=O)O)cc2)cc1` [MnTBAP, Manganese (III) tetrakis (4-benzoic acid) porphyrin chloride], in series [3] (UVSS and all CS cells, compared with control cells), the HTRA2 reduction result was “dramatically higher”. The “levels of serine protease HTRA2” value in series [3] (control cells) is reported as “reduce by one half”. Also, the “levels of peroxynitrite, measured by DHR123” value in [4] is “greatly reduced”. The “levels of ROS, measured by DCFHDA” value in series [5] was “decreased by two thirds”. In addition, the “levels of POLG1” value in series [6] is listed as “increased levels of POLG1”. In [7] (100 μM MnTBAP, continuous treatment by 3 days), the “cell survival (cell number and cell shape)” value is recorded as “did not show effect on cell survival”. The “levels of HTRA3” value is “restored control levels of HTRA3” in [8] (CS cells), “did reduce” in series [8] (UVSS cells) and “increased the levels of HTRA3” in series [8] (control cells). For the same molecule, the values for the mtDNA content result in series [9] (control fibroblasts) and in series [9] (patient cells) were “does not change the mtDNA content” and “becomes close to the value of controls”, respectively. Besides, the “glycolytic shift / fraction of ATP produced by mitochondria” value in [10] (CS cells, 24 h treatment) is “attenuated”. Also, the “total ATP levels” value in series [10] (UVSS and CS cells) is given as “remain relatively high”.

B1: KSTI: Kunitz soybean trypsin inhibitor, a natural serine protease inhibitor (protein)
chain: DFVLDNEGNPLENGGTYYILSDITAFGGIRAAPTGNERCPLTVVQSRNELDKGIGTIISSPYRIRFIAEGHPLSLKFDSFAVIMLCVGIPTEWSVVEDLPEGPAVKIGENKDAMDGWFRLERVSDDEFNNYKLVFCPQQAEDDKCGDIGISIDHDDGTRRLVVSKNKPLVVQFQKLDKESL
Consider B1, for which the POLG1 immunofluorescence level result in series [1] (setting [11]) is “POLG1 levels exceeded those of untreated healthy individuals”; in series [1] (setting [12]), “Significant modifications in two CS type I fibroblasts (539 and 548) were not observed”; in series [1] (setting [13]), “increased levels of POLG1 immunofluorescence”. Moreover, in series [7] (100 μg/ml KSTI, continuous treatment by 6 days), the “cell survival (cell number and cell shape)” value was “did not show effect on cell survival”. Also, the POLG1 levels entry in series [2] was “restored normal POLG1 levels”.
